pIC50: −log10 of the molar value.

For one experiment, the system named is A549. In words: Cytotoxicity against human A549 cells after 72 hrs by MTT assay. The format is functional, cell-based. As to conditions: A549, 72 h.
A short description of experiment [1]: Cytotoxicity against human U87 cells after 72 hrs by MTT assay. As to conditions: U-87 MG. Format: functional, cell-based, U-87MG ATCC.
The nature of experiment [2]: Cytotoxicity against human Hep3B cells after 72 hrs by MTT assay. The format is functional, cell-based, Hep 3B2.

Turning to `CC(C)=C[C@H]1C=C([C@H]2CC[C@]3(C)[C@@H]2CC[C@@H]2[C@@]4(C)CC[C@H](O[C@@H]5O[C@H](CO)[C@@H](O)[C@H](O)[C@H]5O)C(C)(C)[C@@H]4CC[C@]23C)C(=O)O1`, the negative-log IC50 (pIC50) (in the experiment on A549; in experiment [1]; in experiment [2]) was < 4.00 in each case.

Consider `CC(C)=CCC[C@](C)(O)[C@H]1CC[C@]2(C)[C@@H]1[C@H](O)C[C@@H]1[C@@]3(C)CC[C@H](O)C(C)(C)[C@@H]3CC[C@]12C`, for which the pIC50 in experiment [1] was 4.43; in experiment [2] it was 4.83.

Consider `COc1cc([C@@H]2c3cc4c(cc3[C@@H](O[C@@H]3O[C@@H]5CO[C@@H](C)O[C@H]5[C@H](O)[C@H]3O)[C@H]3COC(=O)[C@H]23)OCO4)cc(OC)c1O` [ETOPOSIDE], for which the pIC50 with A549 is 4.62; in experiment [1], 4.91; in experiment [2], 5.17.

With `CC(C)=C1CC=C([C@H]2CC[C@]3(C)[C@@H]2CC[C@@H]2C4=C(CC[C@]23C)C(C)(C)[C@@H]2CC[C@H]4O2)C1=O` [GYPENSAPOGENIN A], the results for the pIC50 (in the experiment on A549; in experiment [1]; in experiment [2]) were 4.15, < 4.00 and 4.35, respectively.

On to `CC(C)=C1CC([C@H]2CC[C@]3(C)[C@@H]2CC[C@@H]2C4=C(CC[C@]23C)C(C)(C)[C@@H]2CC[C@H]4O2)=CC1=O` [GYPENSAPOGENIN B], for which the pIC50 (with A549; in experiment [1]; in experiment [2]) was < 4.00 in each case.

With `CC(C)=C1CC=C([C@H]2CC[C@]3(C)[C@@H]2CC[C@@H]2[C@@]4(C)CC[C@H](O)C(C)(C)[C@@H]4CC[C@]23C)C1=O` [GYPENSAPOGENIN C], the results for the negative-log IC50 (pIC50) (with A549; in experiment [1]; in experiment [2]) were 6.96, 6.24 and < 4.00, respectively.

For the compound `CC(C)=C[C@H]1C=C([C@H]2CC[C@]3(C)[C@@H]2CC[C@@H]2[C@@]4(C)CC[C@H](O)C(C)(C)[C@@H]4CC[C@]23C)C(=O)O1` [GYPENSAPOGENIN D], the negative-log IC50 (pIC50) (in the experiment with A549; in experiment [1]; in experiment [2]) was < 4.00 each time.

For the origin of these results see ChEMBL document CHEMBL1949562, “Triterpenes possessing an unprecedented skeleton isolated from hydrolyzate of total saponins from Gynostemma pentaphyllum” (Eur J Med Chem, 2012).
